Laboratory results from PubChem BioAssay (NCI).
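96-well plates; 48 h exposure; 5 concentrations. Endpoints by linear interpolation between flanking doses. Not reached: highest tested concentration assigned. TGI: concentration producing complete growth inhibition.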

Key:
Test in all cases: inhibition of tumour cell growth, NCI panel, 48 h
RPMI-8226 leukemia = test system: RPMI-8226 leukemia
K-562 leukemia = test system: K-562 leukemia
SF-539 CNS = test system: SF-539 CNS
CCRF-CEM leukemia = test system: CCRF-CEM leukemia
SF-295 CNS = test system: SF-295 CNS
HS 578T breast = test system: HS 578T breast
A549 NSCLC = test system: A549 NSCLC
SK-MEL-2 melanoma = test system: SK-MEL-2 melanoma
BT-549 breast = test system: BT-549 breast
MDA-MB-435 = test system: MDA-MB-435
TK-10 renal = test system: TK-10 renal
SNB-19 CNS = test system: SNB-19 CNS
UACC-62 melanoma = test system: UACC-62 melanoma
UACC-257 melanoma = test system: UACC-257 melanoma
HCT-116 colon = test system: HCT-116 colon
MOLT-4 leukemia = test system: MOLT-4 leukemia
KM12 colon = test system: KM12 colon
786-0 renal = test system: 786-0 renal
LOX IMVI melanoma = test system: LOX IMVI melanoma
NCI-H226 lung = test system: NCI-H226 lung
PC-3 prostate = test system: PC-3 prostate
NCI/ADR-RES ovarian = test system: NCI/ADR-RES ovarian
OVCAR-3 ovarian = test system: OVCAR-3 ovarian
HT29 colon = test system: HT29 colon
HL-60(TB) leukemia = test system: HL-60(TB) leukemia
IGROV1 ovarian = test system: IGROV1 ovarian
SK-OV-3 ovarian = test system: SK-OV-3 ovarian
OVCAR-8 ovarian = test system: OVCAR-8 ovarian
NCI-H460 lung = test system: NCI-H460 lung
HOP-92 NSCLC = test system: HOP-92 NSCLC
A498 renal = test system: A498 renal
HCT-15 colon = test system: HCT-15 colon
SN12C renal = test system: SN12C renal
RXF 393 renal = test system: RXF 393 renal
SK-MEL-5 melanoma = test system: SK-MEL-5 melanoma
OVCAR-5 ovarian = test system: OVCAR-5 ovarian
HOP-62 NSCLC = test system: HOP-62 NSCLC
OVCAR-4 ovarian = test system: OVCAR-4 ovarian
SNB-75 CNS = test system: SNB-75 CNS
CAKI-1 renal = test system: CAKI-1 renal
SW-620 colon = test system: SW-620 colon
MCF7 breast = test system: MCF7 breast
NCI-H522 lung = test system: NCI-H522 lung
DU-145 prostate = test system: DU-145 prostate
SR leukemia = test system: SR leukemia
EKVX NSCLC = test system: EKVX NSCLC
COLO 205 colon = test system: COLO 205 colon
SK-MEL-28 melanoma = test system: SK-MEL-28 melanoma
U251 CNS = test system: U251 CNS
MDA-N = test system: MDA-N
M14 melanoma = test system: M14 melanoma
T-47D breast = test system: T-47D breast
ACHN renal = test system: ACHN renal
HCC-2998 colon = test system: HCC-2998 colon
MALME-3M melanoma = test system: MALME-3M melanoma
MDA-MB-231 breast = test system: MDA-MB-231 breast
NCI-H23 lung = test system: NCI-H23 lung
SF-268 CNS = test system: SF-268 CNS
UO-31 renal = test system: UO-31 renal

Measured: TGI

O=c1n(CCCN2CCN(c3cccc(Cl)c3)CC2)nc2n1-c1ccc3ccccc3c1SC2
not listed: M14 melanoma | T-47D breast | ACHN renal | HCC-2998 colon | MALME-3M melanoma | MDA-MB-231 breast | NCI-H23 lung | SF-268 CNS | UO-31 renal
> 100 µM: all other assays above

CCOC(=O)C1=C(OS(=O)(=O)C(F)(F)F)CCCC1
not listed: BT-549 breast | HCT-116 colon | SN12C renal
> 100 µM: all other assays above
